Test results reported in publication PMC6787163, “Systematic Dual Targeting of Dendritic Cell C-Type Lectin Receptor DC-SIGN and TLR7 Using a Trifunctional Mannosylated Antigen” (Frontiers in Chemistry, 2019).
Values joined by “and” are separate entries in the source; they are usually repeats but may differ in a detail not shown here. Identical values can stand only once. “Also recorded” adds a separate entry of the source. Like-named read-outs stand apart in the source and are kept apart here.

Experiments:
[1] = tested on: moDCs co-cultured with gp100-specific T cells; assay: Antigen presentation by moDCs to gp100-specific T cells (IFNγ ELISA); type: cell-based, human; conditions: 20 μM conjugate, 30 min pulse, overnight co-culture
Protocol: Lastly, antigen presentation was determined in a human T cell antigen presentation model (Figure 5D). In this assay, the potency of DCs to present the internalized gp100 antigen on the cell surface to gp100-specific T cells is analyzed. The IFNγ secretion of activated T cells upon recognition of the cell surface presented gp100 is measured. Day 5 moDCs were stimulated for 30 min, as the internalization was relatively fast, with the glycopeptides at the assay-optimized concentration of 20 μM (Supplementary Figure 1H). The constructs were washed away before overnight co-culture with gp100-specific T cells. […] The obstruction of antigen presentation was primarily seen with the B6-gp100-TLR7L contradicting the assumption that the best binding constructs will simultaneously maximize T cell activation. […]
Immature day 5 moDCs were seeded in 96-well plates (Greiner) at 50·10^3 cells/well and incubated with 20 μM of the different gp100-conjugates in the presence or absence of the TLR4 ligand LPS (10 ng/mL) or the TLR7 ligand Imiquimod (2.5 μg/mL). […] IFNγ in the supernatant was measured by sandwich ELISA according to the manufacturer's protocol (Biosource), and measured by spectrophotometric analysis on the iMarkTM Microplate Absorbance Reader (Bio-RAD) at 450 nm.

DC-SIGN S-ECD = molecular target: T1, DC-SIGN S-ECD (Homo sapiens, UniProt Q9NNX6); assay: SPR direct interaction assay on oriented DC-SIGN S-ECD surface; type: binding; conditions: for Kd: SPR direct interaction, oriented tetrameric DC-SIGN ECD surface, apparent Kd
T1 construct: The ECD of DC-SIGN (residues 66–404) was overexpressed and purified as previously described; made in house
T1 sequence (Q9NNX6 66-404): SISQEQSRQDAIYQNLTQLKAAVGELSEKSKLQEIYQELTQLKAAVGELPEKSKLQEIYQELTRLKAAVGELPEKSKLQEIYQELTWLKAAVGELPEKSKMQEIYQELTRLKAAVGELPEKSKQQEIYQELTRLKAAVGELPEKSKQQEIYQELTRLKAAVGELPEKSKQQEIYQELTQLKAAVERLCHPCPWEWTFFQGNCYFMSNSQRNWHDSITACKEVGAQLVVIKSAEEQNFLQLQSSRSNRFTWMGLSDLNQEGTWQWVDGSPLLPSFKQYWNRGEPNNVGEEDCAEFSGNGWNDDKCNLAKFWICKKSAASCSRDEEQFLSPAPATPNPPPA
Outline: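 Tetrameric DC-SIGN ECD carrying an N-terminal StrepTagII was captured in oriented form on streptactin (2,500–3,000 RU), with a streptactin-only control cell. Glycoclusters were injected at increasing concentrations (30 μL/min) in Tris pH 8 buffer with 150 mM NaCl and 4 mM CaCl2. Apparent Kd from a 1:1 fit reflects binding to the whole surface.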

moDCs = assay: Internalization of biotinylated hexavalent clusters by moDCs (flow cytometry); type: cell-based, human
Outline: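 Immature day-5 moDCs (half gently pre-fixed with 1% PFA) loaded with 20 μM biotinylated clusters for 1 h on ice, washed, then shifted to 37°C; samples taken at time points. Surface retention read by Streptavidin-Alexa647 flow cytometry; parallel run used clusters pre-complexed with pHrodo-Avidin (2:1, 15 min, 37°C).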

DC-SIGN on moDC = assay: Binding of biotinylated mannoside library to moDCs by flow cytometry; type: cell-based, human; conditions: 10 μM biotinylated cluster, 30 min at 4°C, streptavidin staining
Protocol: Next, we assessed the binding of our clusters to cellular DC-SIGN using moDCs (Figure 3B, Supplementary Figure 1B). To this end, binding of the clusters a1–a6, b1–b6, c1–c6, d1–d6, and e1–e6, decorated with a biotin handle, was determined by flow cytometry. Clusters were bound to moDCs for 30 min at 4°C. By staining using fluorophore-conjugated streptavidin and washing at 4°C, the bound clusters could be quantified by flow cytometry. […] In control experiments ligand binding to DC-SIGN was inhibited using a blocking anti-DC-SIGN antibody (Supplementary Figure 1C).
Approximately 10^5 day 5 moDCs were washed and resuspended in 100 μL culture medium (pre-cooled to 4°C). 20 μg/mL AZN-D1 (anti-DC-SIGN, in house Geijtenbeek et al., [2002]) or purified mouse anti-human CD206 antibody (Clone 19.2, BD Bioscience) was added to the moDCs and pre-incubated for 45 min on ice. Subsequently, 10 μM of the biotinylated mannoside clusters or 1 μg/mL of Lewis^Y-conjugated polyacrylamide (positive control) was added, and incubated for 30 min at 4°C. Cells were then washed with pre-cooled PBS (4°C), and stained with Alexa647-labeled streptavidin (Invitrogen^TM) in PBS supplemented with 0.5% BSA and 0.02% NaN3 (PBA) for 30 min at 4°C. Upon washing in ice-cold PBA and fixation in PBS with 0.5% PFA, the fluorescence was measured by flow cytometry (CyAn™ ADP with Summit™ Software), and further analyzed using FlowJo v10.

Row | SMILES | antigen presentation (IFNγ release of activated gp100-specific T cells) [1] | decrease of DC-SIGN affinity on conjugation to gp100 or gp100-TLR7L (factor) (DC-SIGN S-ECD; Kd-app of conjugate vs unconjugated cluster) | Kd (DC-SIGN S-ECD; Kdapp) [nM] | internalization by moDCs (loss of surface streptavidin signal) (moDCs; 20 μM cluster, live moDCs) | uptake by immature moDCs (moDCs; after 30 min at 37°C, 20 μM cluster) [%] | internalization by moDCs (pHrodo-avidin fluorescence increase) (moDCs; clusters pre-complexed with pH-sensitive dye) | binding affinity for DC-SIGN relative to B6 (fold lower) (DC-SIGN S-ECD) [fold] | Kd (DC-SIGN S-ECD; read-out: Kdapp) | binding to DC-SIGN on moDC (DC-SIGN on moDC)
1 | CCCCOc1nc(N)c2[nH]c(=O)n(Cc3ccc(C(=O)NCCOCCOCC(=O)NCCCC[C@H](NC(=O)CNC(=O)[C@H](CCCNC(=N)N)NC(=O)[C@H](Cc4c[nH]c5ccccc45)NC(=O)[C@H](CC)NC(=O)[C@H](CC(=O)O)NC(=O)[C@H](CC(C)C)NC(=O)[C@H](CCCNC(=N)N)NC(=O)[C@H](CCC(N)=O)NC(=O)[C@H](C)NC(=O)[C@H](CCC(=O)O)NC(=O)[C@@H](NC(=O)[C@H](Cc4c[nH]c5ccccc45)NC(=O)[C@H](CCC(=O)O)NC(=O)[C@@H]4CCCN4C(=O)[C@H](Cc4ccc(O)cc4)NC(=O)[C@H](CC(C)C)NC(=O)[C@H](CCC(N)=O)NC(=O)[C@H](CCCNC(=N)N)NC(=O)[C@H](CC(N)=O)NC(=O)[C@H](C)NC(=O)[C@@H](NC(=O)[C@@H](NC(=O)[C@@H]4CCCN4C(=O)CNC(=O)[C@@H]4CCCN4C(=O)[C@H](CCC(=O)O)NC(=O)[C@H](CC(C)C)NC(=O)[C@H](Cc4ccc(O)cc4)NC(=O)[C@@H](NC(=O)[C@H](Cc4c[nH]cn4)NC(=O)[C@@H](NC(=O)[C@@H](NC(=O)[C@H](CCCCn4cc(CCC(=O)NCCCC[C@H](NC(=O)CNC(=O)[C@H](CCCCn5cc(CO[C@H]6O[C@H](CO[C@H]7O[C@H](CO)[C@@H](O)[C@H](O)[C@@H]7O)[C@@H](O)[C@H](O[C@H]7O[C@H](CO)[C@@H](O)[C@H](O)[C@@H]7O)[C@@H]6O)nn5)NC(=O)[C@H](CCCCn5cc(CO[C@H]6O[C@H](CO[C@H]7O[C@H](CO)[C@@H](O)[C@H](O)[C@@H]7O)[C@@H](O)[C@H](O[C@H]7O[C@H](CO)[C@@H](O)[C@H](O)[C@@H]7O)[C@@H]6O)nn5)NC(=O)[C@H](CCCCn5cc(CO[C@H]6O[C@H](CO[C@H]7O[C@H](CO)[C@@H](O)[C@H](O)[C@@H]7O)[C@@H](O)[C@H](O[C@H]7O[C@H](CO)[C@@H](O)[C@H](O)[C@@H]7O)[C@@H]6O)nn5)NC(=O)[C@H](CCCCn5cc(CO[C@H]6O[C@H](CO[C@H]7O[C@H](CO)[C@@H](O)[C@H](O)[C@@H]7O)[C@@H](O)[C@H](O[C@H]7O[C@H](CO)[C@@H](O)[C@H](O)[C@@H]7O)[C@@H]6O)nn5)NC(=O)[C@H](CCCCn5cc(CO[C@H]6O[C@H](CO[C@H]7O[C@H](CO)[C@@H](O)[C@H](O)[C@@H]7O)[C@@H](O)[C@H](O[C@H]7O[C@H](CO)[C@@H](O)[C@H](O)[C@@H]7O)[C@@H]6O)nn5)NC(=O)[C@H](CCCCn5cc(CO[C@H]6O[C@H](CO[C@H]7O[C@H](CO)[C@@H](O)[C@H](O)[C@@H]7O)[C@@H](O)[C@H](O[C@H]7O[C@H](CO)[C@@H](O)[C@H](O)[C@@H]7O)[C@@H]6O)nn5)NC(C)=O)C(N)=O)nn4)NC(C)=O)C(C)C)[C@@H](C)O)[C@@H](C)O)C(C)C)[C@@H](C)O)[C@@H](C)O)C(N)=O)cc3)c2n1 [E6-gp100-TLR7L] | increased T cell activation; also recorded: strongest antigen presentation | about 10 | 31000 | – | – | – | – | – | –
2 | CC(=O)N[C@@H](CCCCn1cc(CO[C@H]2O[C@H](CO[C@H]3O[C@H](CO)[C@@H](O)[C@H](O)[C@@H]3O)[C@@H](O)[C@H](O[C@H]3O[C@H](CO)[C@@H](O)[C@H](O)[C@@H]3O)[C@@H]2O)nn1)C(=O)N[C@@H](CCCCn1cc(CO[C@H]2O[C@H](CO[C@H]3O[C@H](CO)[C@@H](O)[C@H](O)[C@@H]3O)[C@@H](O)[C@H](O[C@H]3O[C@H](CO)[C@@H](O)[C@H](O)[C@@H]3O)[C@@H]2O)nn1)C(=O)N[C@@H](CCCCn1cc(CO[C@H]2O[C@H](CO[C@H]3O[C@H](CO)[C@@H](O)[C@H](O)[C@@H]3O)[C@@H](O)[C@H](O[C@H]3O[C@H](CO)[C@@H](O)[C@H](O)[C@@H]3O)[C@@H]2O)nn1)C(=O)N[C@@H](CCCCn1cc(CO[C@H]2O[C@H](CO[C@H]3O[C@H](CO)[C@@H](O)[C@H](O)[C@@H]3O)[C@@H](O)[C@H](O[C@H]3O[C@H](CO)[C@@H](O)[C@H](O)[C@@H]3O)[C@@H]2O)nn1)C(=O)N[C@@H](CCCCn1cc(CO[C@H]2O[C@H](CO[C@H]3O[C@H](CO)[C@@H](O)[C@H](O)[C@@H]3O)[C@@H](O)[C@H](O[C@H]3O[C@H](CO)[C@@H](O)[C@H](O)[C@@H]3O)[C@@H]2O)nn1)C(=O)N[C@@H](CCCCn1cc(CO[C@H]2O[C@H](CO[C@H]3O[C@H](CO)[C@@H](O)[C@H](O)[C@@H]3O)[C@@H](O)[C@H](O[C@H]3O[C@H](CO)[C@@H](O)[C@H](O)[C@@H]3O)[C@@H]2O)nn1)C(=O)NCC(=O)N[C@@H](CCCCN)C(N)=O [E6] | – | – | – | remains longer at the surface | 25 | endocytosed at lower rate | 3 | 2780 nM and 2700 nM | did not observe an increase in binding
